From ChEMBL document CHEMBL4420074, “Small molecule inhibitors of Dusp6 and uses therefor” (2015)
Active and inactive are the calls of the source. The calls are words filed in the database; no cut-off is given here.

Legend:
[1] = biological target: T1, Dual specificity protein phosphatase (Danio rerio) (UniProt Q7T2L8); assay: Inhibition of Dusp6 in (Tg(Dusp6:d2EGFP)pt6) transgenic Zebrafish assessed as activation of FGF signaling at 20 uM treated at 24 hours post fertilization and measured after 6 hrs post dose by d2EGFP fluorescence based assay relative to BCI; set-up: scale not given: the % may be the effect or the level left
T1 sequence (whole entry): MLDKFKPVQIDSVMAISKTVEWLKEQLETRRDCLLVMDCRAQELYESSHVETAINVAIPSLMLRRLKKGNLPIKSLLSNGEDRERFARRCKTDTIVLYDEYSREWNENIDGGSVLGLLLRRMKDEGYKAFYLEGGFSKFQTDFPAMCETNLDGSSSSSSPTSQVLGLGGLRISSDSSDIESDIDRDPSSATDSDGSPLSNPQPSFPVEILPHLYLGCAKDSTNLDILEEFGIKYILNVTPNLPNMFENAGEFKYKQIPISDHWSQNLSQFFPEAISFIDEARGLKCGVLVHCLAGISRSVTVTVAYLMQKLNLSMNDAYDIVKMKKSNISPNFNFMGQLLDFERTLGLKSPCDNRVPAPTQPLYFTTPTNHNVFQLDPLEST

[2] = Toxicity in (Tg(Dusp6:d2EGFP)pt6) transgenic Zebrafish assessed as induction of tail necrosis at >10 uM incubated for 24 hrs; set-up: species or system Danio rerio; details: in vivo
[3] = Toxicity in (Tg(Dusp6:d2EGFP)pt6) transgenic Zebrafish assessed as induction of embryo death at 20 uM incubated for 24 hrs; set-up: species or system Danio rerio; details: in vivo, other: incubation
[4] = Toxicity in (Tg(Dusp6:d2EGFP)pt6) transgenic Zebrafish assessed as induction of embryo death at >10 uM incubated for 24 hrs; set-up: species or system Danio rerio; details: in vivo
[5] = biological target: Dual specificity protein phosphatase 6 (Homo sapiens) (UniProt Q16828); assay: Inhibition of recombinant His-tagged Dusp6 (unknown origin) assessed as suppression of […] dephosphorylation at 1 mM incubated for 60 mins by immunoblotting
[6] = Toxicity in (Tg(Dusp6:d2EGFP)pt6) transgenic Zebrafish assessed as induction of embryo death at 10 uM incubated for 24 hrs; set-up: species or system Danio rerio; details: in vivo, other: incubation
[7] = biological target: T1, Dual specificity protein phosphatase (Danio rerio); assay: Inhibition of Dusp6 in (Tg(Dusp6:d2EGFP)pt6) transgenic Zebrafish assessed as activation of FGF signaling at 20 uM by d2EGFP fluorescence based assay
[8] = biological target: T2, Dual specificity protein phosphatase 6 (Homo sapiens) (UniProt Q16828); assay: Inhibition of Myc-tagged human Dusp6 expressed in TPA-stimulated human HeLa cells assessed as suppression of Dusp6-induced reduction in ERK phosphorylation at 0.5 to 2 uM by immunostaining based assay; assay type: cell-based
T2 sequence (whole entry): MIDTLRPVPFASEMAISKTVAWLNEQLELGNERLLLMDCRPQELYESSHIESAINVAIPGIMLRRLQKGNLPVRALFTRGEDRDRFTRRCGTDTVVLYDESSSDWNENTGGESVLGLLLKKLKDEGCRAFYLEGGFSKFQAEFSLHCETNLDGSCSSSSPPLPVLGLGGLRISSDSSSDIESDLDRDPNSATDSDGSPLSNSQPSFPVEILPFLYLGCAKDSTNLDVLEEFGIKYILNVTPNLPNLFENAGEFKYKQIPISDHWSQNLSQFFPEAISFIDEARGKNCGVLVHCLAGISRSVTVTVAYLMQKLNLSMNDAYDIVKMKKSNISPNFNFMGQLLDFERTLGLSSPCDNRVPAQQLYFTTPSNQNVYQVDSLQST

[9] = biological target: T2, Dual specificity protein phosphatase 6 (Homo sapiens); assay: Inhibition of recombinant His-tagged Dusp6 (unknown origin) assessed as suppression of […] dephosphorylation at 100 uM incubated for 60 mins by immunoblotting
[10] = biological target: T3, Dual specificity protein phosphatase 1 (Homo sapiens) (UniProt P28562); assay: Inhibition of Myc-tagged human Dusp1 expressed in TPA-stimulated human HeLa cells assessed as suppression of […] reduction in ERK phosphorylation at 0.5 to 2 uM by immunostaining based assay; assay type: cell-based
T3 sequence (whole entry): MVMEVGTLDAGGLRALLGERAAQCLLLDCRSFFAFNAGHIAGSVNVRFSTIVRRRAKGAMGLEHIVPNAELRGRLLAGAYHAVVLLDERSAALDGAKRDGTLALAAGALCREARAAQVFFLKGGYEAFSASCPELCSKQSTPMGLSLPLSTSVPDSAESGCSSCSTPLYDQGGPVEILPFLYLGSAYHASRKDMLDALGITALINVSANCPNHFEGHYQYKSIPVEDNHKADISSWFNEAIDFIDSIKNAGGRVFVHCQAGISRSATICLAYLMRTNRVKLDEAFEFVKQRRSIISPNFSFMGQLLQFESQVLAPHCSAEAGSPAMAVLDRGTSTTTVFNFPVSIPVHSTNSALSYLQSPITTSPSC

[11] = organism: Danio rerio; assay: Induction of cardiac tissue expansion in Zebrafish embryos exposed to compound at 1 and 8-somite stages followed by compound washout in next day and further incubation until embryos reached 56 hpf; assay type: functional, organism-based
[12] = biological target: T1, Dual specificity protein phosphatase (Danio rerio); assay: Inhibition of Dusp6 in Zebrafish 1-cell stage embryos assessed as rescue of Zebrafish dusp6-mediated suppression of sef expression at 5 uM
[13] = biological target: T1, Dual specificity protein phosphatase (Danio rerio); assay: Inhibition of Dusp6 in (Tg(Dusp6:d2EGFP)pt6) transgenic Zebrafish assessed as activation of FGF signaling by measuring increase in spry4 expression at 10 to 20 uM by semi-quantitative RT-PCR analysis
[14] = organism: Danio rerio; assay: Inhibition of exogenous Zebrafish spry4-mediated suppression of sef expression in Zebrafish 1-cell stage embryos at 5 uM; assay type: functional, organism-based
[15] = biological target: T1, Dual specificity protein phosphatase (Danio rerio); assay: Inhibition of Dusp6 in (Tg(Dusp6:d2EGFP)pt6) transgenic Zebrafish assessed as activation of FGF signaling at 5 uM by d2EGFP fluorescence based assay
[16] = biological target: T1, Dual specificity protein phosphatase (Danio rerio); assay: Inhibition of Dusp6 in (Tg(Dusp6:d2EGFP)pt6) transgenic Zebrafish assessed as activation of FGF signaling after 2 hrs by d2EGFP fluorescence based assay
[17] = organism: Danio rerio; assay: Induction of cardiac tissue expansion in Zebrafish embryos assessed as induction of heart enlargement by measuring increase in cmlc2 expression exposed to compound at larval stage followed by compound washout in next day and further incubation until embryos reached 56 hpf by in situ hybridization assay; assay type: functional, organism-based
[18] = biological target: T1, Dual specificity protein phosphatase (Danio rerio); assay: Inhibition of Dusp6 in (Tg(Dusp6:d2EGFP);ace mutant) transgenic Zebrafish assessed as activation of FGF signaling in mid-hindbrain boundary by d2EGFP fluorescence based assay
[19] = biological target: T1, Dual specificity protein phosphatase (Danio rerio); assay: Inhibition of Dusp6 in (Tg(Dusp6:d2EGFP)pt6) transgenic Zebrafish assessed as activation of FGF signaling by measuring increase in ntl expression within notochord and tail bud at 6-somite stage at 10 to 20 uM dosed prior to gastrulation by whole mount in situ hybridization assay; assay type: organism-based
[20] = biological target: T1, Dual specificity protein phosphatase (Danio rerio); assay: Inhibition of Dusp6 in (Tg(Dusp6:d2EGFP)pt6) transgenic Zebrafish assessed as activation of FGF signaling by measuring increase in eng3 expression at 10 to 20 uM dosed 1 to 10-somite stage by whole mount in situ hybridization assay; assay type: organism-based
[21] = organism: Danio rerio; assay: Inhibition of exogenous Zebrafish XFD-mediated suppression of sef expression in Zebrafish 1-cell stage embryos at 5 uM; assay type: functional, organism-based
[22] = biological target: T1, Dual specificity protein phosphatase (Danio rerio); assay: Inhibition of Dusp6 in (Tg(Dusp6:d2EGFP)pt6) transgenic Zebrafish assessed as activation of FGF signaling by measuring increase in dusp6 expression at 10 to 20 uM dosed 1 to 10-somite stage by whole mount in situ hybridization assay; assay type: organism-based
[23] = biological target: T1, Dual specificity protein phosphatase (Danio rerio); assay: Inhibition of Dusp6 in (Tg(Dusp6:d2EGFP)pt6) transgenic Zebrafish assessed as activation of FGF signaling by measuring expansion of prospective mid-hindbrain boundary at 10 to 20 uM dosed 1 to 10-somite stage by whole mount in situ hybridization assay; assay type: organism-based
[24] = organism: Danio rerio; assay: Induction of cardiac tissue expansion in Zebrafish embryos exposed to compound at post 1 and 8-somite stages followed by compound washout in next day and further incubation until embryos reached 56 hpf; assay type: functional, organism-based
[25] = organism: Danio rerio; assay: Induction of cardiac tissue expansion in ventricular tissue of Zebrafish embryos exposed to compound at larval stage followed by compound washout in next day and further incubation until embryos reached 56 hpf; assay type: functional, organism-based
[26] = organism: Danio rerio; assay: Induction of cardiac tissue expansion in Zebrafish embryos exposed to compound at larval stage followed by compound washout in next day and further incubation until embryos reached 56 hpf; assay type: functional, organism-based
[27] = biological target: T1, Dual specificity protein phosphatase (Danio rerio); assay: Inhibition of Dusp6 in (Tg(Dusp6:d2EGFP)pt6) transgenic Zebrafish assessed as activation of FGF signaling by measuring increase in sef expression at 10 to 20 uM by semi-quantitative RT-PCR analysis
[28] = biological target: T2, Dual specificity protein phosphatase 6 (Homo sapiens); assay: Inhibition of Myc-tagged human Dusp6 expressed in TPA-stimulated human HeLa cells assessed as suppression of Dusp6-induced reduction in ERK phosphorylation by immunostaining based assay; assay type: cell-based
[29] = biological target: T1, Dual specificity protein phosphatase (Danio rerio); assay: Inhibition of Dusp6 in (Tg(Dusp6:d2EGFP)pt6) transgenic Zebrafish assessed as activation of FGF signaling by measuring increase in krox20 expression at 10 to 20 uM dosed 1 to 10-somite stage by whole mount in situ hybridization assay; assay type: organism-based
[30] = biological target: T1, Dual specificity protein phosphatase (Danio rerio); assay: Inhibition of Dusp6 in (Tg(Dusp6:d2EGFP)pt6) transgenic Zebrafish assessed as activation of FGF signaling by measuring expansion of rhombomere-4 and tail bud at 10 to 20 uM dosed 1 to 10-somite stage by whole mount in situ hybridization assay; assay type: organism-based
[31] = biological target: T4, Dual specificity protein phosphatase (Danio rerio) (UniProt Q6PBT4); assay: Inhibition of Dusp5 in Zebrafish 1-cell stage embryos assessed as rescue of Zebrafish dusp5-mediated suppression of sef expression at 5 uM
T4 sequence (whole entry): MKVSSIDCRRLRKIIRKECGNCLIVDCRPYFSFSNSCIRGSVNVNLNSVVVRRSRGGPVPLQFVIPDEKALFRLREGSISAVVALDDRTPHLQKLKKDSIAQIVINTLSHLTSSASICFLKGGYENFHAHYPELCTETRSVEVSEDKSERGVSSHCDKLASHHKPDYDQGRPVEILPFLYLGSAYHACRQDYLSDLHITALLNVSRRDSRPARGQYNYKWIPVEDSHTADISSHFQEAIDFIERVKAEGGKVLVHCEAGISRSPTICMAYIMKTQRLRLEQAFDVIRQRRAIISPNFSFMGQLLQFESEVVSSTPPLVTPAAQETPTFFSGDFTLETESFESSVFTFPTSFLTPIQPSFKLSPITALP

[32] = biological target: T1, Dual specificity protein phosphatase (Danio rerio); assay: Inhibition of Dusp6 in Zebrafish assessed as assessed as activation of FGF signaling by measuring reduction in ETSRP expression relative to control
[33] = biological target: T2, Dual specificity protein phosphatase 6 (Homo sapiens); assay: Inhibition of recombinant His-tagged Dusp6 (unknown origin) assessed as reduction in basal Dusp6 activity at 100 uM using OMFP substrate by fluorescence based assay
[34] = organism: Danio rerio; assay: Induction of cardiac tissue expansion in Zebrafish embryos assessed as induction of heart enlargement by measuring increase in VHMC expression exposed to compound at larval stage followed by compound washout in next day and further incubation until embryos reached 56 hpf by in situ hybridization assay; assay type: functional, organism-based
[35] = Toxicity in (Tg(Dusp6:d2EGFP)pt6) transgenic Zebrafish assessed as induction of embryo death at 40 uM incubated for 24 hrs; set-up: species or system Danio rerio; details: in vivo

O=C1N[C@H]2[C@H](CS[C@H]2CCCCC(=O)N[C@H]2CC[C@H](NC3/C(=C\c4ccccc4)C(=O)c4ccccc43)CC2)N1 (stereo partly drawn)
Activity [1]: inactive

O=C1/C(=C/c2ccccc2)C(NC2CCCCC2)c2ccccc21 (stereo in doubt; form 1) [listing 1 of 2 here]
Activity [2]: Toxic
mortality at 24 h, 20 µM [3]: 100%
Activity [4]: Toxic

N#Cc1ccc2c(c1)C(NC1CCCCC1)/C(=C\c1ccccc1)C2=O (stereo not drawn)
Activity [1]: inactive

SODIUM ORTHOVANAD
inhibition [5]: Active

O=C1/C(=C/c2ccccc2)C(N2CCOCC2)c2ccccc21 (stereo not drawn)
mortality at 24 h, 10 µM [6]: 100%

CC(C)(C)OC(=O)N[C@H]1CC[C@H](NC2/C(=C\c3ccccc3)C(=O)c3ccccc32)CC1 (stereo partly drawn)
Activity [1]: inactive

O=C1/C(=C/c2ccccc2)C(NC2CCCCC2)c2ccccc21 (stereo in doubt; form 2)
Activity [1]: 82%

O=C1/C(=C/c2ccccc2)Cc2ccccc21
inhibition [7]: inactive

O=C1CC(NC2CCCCC2)c2ccccc21 (stereo not drawn)
inhibition [8]: inactive
inhibition [9]: inactive
inhibition [7]: inactive
inhibition [10]: inactive

O=C1/C(=C/c2ccccc2)C(NC2CCCCC2)c2ccccc21 (stereo in doubt; form 1) [listing 2 of 2 here]
Activity [11]: Active
inhibition [12]: Active
inhibition [13]: Active
inhibition [14]: inactive
inhibition [15]: Active
inhibition [16]: Dose-dependent effect
inhibition [8]: Active
Activity [17]: Active
inhibition [9]: Active
inhibition [18]: inactive
inhibition [19]: Active
inhibition [20]: Active
inhibition [21]: inactive
inhibition [22]: Active
inhibition [23]: Active
Activity [24]: inactive
inhibition [10]: Active
Activity [25]: Active
Activity [1]: 100%
Activity [26]: Dose-dependent effect
inhibition [27]: Active
inhibition [28]: Active
inhibition [29]: Active
inhibition [30]: Active
inhibition [31]: inactive
inhibition [32]: Active
inhibition [33]: inactive
Activity [34]: Active

O=C1/C(=C/c2ccccc2)C(NC2CCCCC2)c2cc(Br)ccc21 (stereo not drawn)
Activity [35]: Non-Toxic
